Values after ≈ are worked out from the molar mass of the structure shown. Active and inactive are the calls of the source. The calls are words filed in the database; no cut-off is given here.
Tests used:
Assay type in all cases: functional
A549 = assay: Cytotoxicity against human A549 cells after 24 hrs by SRB assay; settings: A549, 24 h, read-out: ED50 (the source's name)
MCF7 = assay: Cytotoxicity against human MCF7 cells after 24 hrs by SRB assay; settings: MCF7, 24 h, read-out: ED50 (the source's name)
[1] = (§1) Cytotoxicity against human RPMI cells after 24 hrs by SRB assay; settings: read-out: ED50 (the source's name)
U-251 = assay: Cytotoxicity against human U251 cells after 24 hrs by SRB assay; settings: for EC50: U-251, 24 h, read-out: ED50 (the source's name)
RPMI = assay: as §1
HT-29 = assay: Cytotoxicity against human HT-29 cells after 24 hrs by SRB assay; settings: HT-29, 24 h, read-out: ED50 (the source's name)

SMILES	EC50 (A549) [µg/mL]	EC50 (MCF7) [µg/mL]	EC50 [1] [µg/mL]	EC50 (U-251) [µg/mL]	ED50 (RPMI)	ED50 (U-251)	EC50 (HT-29) [µg/mL]
COc1cccc2c1C(=O)c1c(O)c3c(c(O)c1C2=O)C[C@@](O)(C(=O)CO)C[C@@H]3O[C@H]1C[C@H](N)[C@H](O)[C@H](C)O1 [DOXORUBICIN]	0.03 (≈ 0.0552 µM)	0.03 (≈ 0.0552 µM)	0.02 (≈ 0.0368 µM)	0.02 (≈ 0.0368 µM)	–	–	–
C[C@@H]1O[C@@H](O[C@H]2C[C@](O)(C(=O)CBr)Cc3c(O)c4c(c(O)c32)C(=O)c2ccccc2C4=O)[C@H](F)[C@H](O)[C@@H]1O	0.6 (≈ 1.01 µM)	0.4 (≈ 0.672 µM)	–	–	inactive	inactive	–
C[C@@H]1O[C@@H](O[C@H]2C[C@](O)(C(=O)CO)Cc3c(O)c4c(c(O)c32)C(=O)c2ccccc2C4=O)[C@H](F)[C@H](O)[C@@H]1O	0.008 (≈ 0.015 µM)	0.02 (≈ 0.0376 µM)	0.02 (≈ 0.0376 µM)	0.02 (≈ 0.0376 µM)	–	–	> 0.001
CC(=O)[C@]1(O)Cc2c(O)c3c(c(O)c2[C@@H](O[C@@H]2O[C@@H](C)[C@@H](O)[C@@H](O)[C@H]2F)C1)C(=O)c1ccccc1C3=O	0.008 (≈ 0.0155 µM)	0.03 (≈ 0.0581 µM)	0.03 (≈ 0.0581 µM)	0.04 (≈ 0.0774 µM)	–	–	–
CC(=O)O[C@H]1[C@@H](F)[C@H](O[C@H]2C[C@](O)(C(C)=O)Cc3c(O)c4c(c(O)c32)C(=O)c2ccccc2C4=O)O[C@@H](C)[C@H]1OC(C)=O	0.07 (≈ 0.117 µM)	0.06 (≈ 0.0999 µM)	0.05 (≈ 0.0833 µM)	0.1 (≈ 0.167 µM)	–	–	0.001 (≈ 0.00167 µM)

Reference: ChEMBL document CHEMBL1268825, “Inhibitory activity of four demethoxy fluorinated anthracycline analogs against five human-tumor cell lines” (2010)
